Source: patent publication US20150297552A1, “FERTILITY ENHANCING AGENT” (OCTAPAM LIMITED, priority 2012, published 2015)

Legend:
Wistar rats [1] = assay: Reproductive function study, agents administered to male rats (Example 1); type: in vivo, rat; conditions: for Amount of gestation female rats / Fertility index / Gestation index / Amount of embryonate female rats: administered to male rats; for Amount of embryonate female rats: of 20 females housed with males; for Amount of babies delivered by 1 female / Post-implantation loss / Postnatal loss after 3 weeks / Pre-implantation loss / Weight of newborn baby rats / Dynamics of babies' body weight, 1st week / Dynamics of babies' body weight, 2nd week / Dynamics of babies' body weight, 3rd week / Dynamics of babies' body weight, 4th week / Craniocaudal size of fetus / Fetus weight / Amount of dead fetuses / Amount of implantation sites / Amount of resorptions / Amount of viable fetuses / Amount of yellow bodies: 10 weeks; for Craniocaudal size of fetus / Fetus weight: 20th day of gestation; for Amount of dead fetuses / Amount of implantation sites / Amount of resorptions / Amount of viable fetuses / Amount of yellow bodies: females sacrificed on 20th day of gestation
Experimental: 180 male and female Wistar rats were tested in the 110 experiments (initial body weight—180-200 g).
Group of 60 male rats was grouped into 6 subgroups each including 10 animals. Each group was treated as follows: group 1—vegetable oil, group 2—β-cyclodextrin, group 3—the agent of present invention, 0.35 mg/kg (the prototype agent), group 4—medication, 0.70 mg/kg (the prototype agent), group 5—the agent of present invention in a clathrate complex, 0.35 mg/kg, group 6—the agent of present invention in a clathrate complex, 0.70 mg/kg.
Male rats of the study subgroups were intragastrically given the above mentioned doses of the prototype agent and the agent of present invention in the clathrate complex form daily during 10 weeks (2-3 cycles of spermatozoa maturation). At the same time, animals of control groups were treated with corresponding amounts of placebo consisting of the vegetable oil or β-cyclodextrin. The placebo was chosen based on the fact that the prototype agent is an oil-soluble compound and the agent of present invention in the clathrate complex form is a water soluble compound. The drugs were administered once daily (at 10 a.m.).
After completion of dosing 6 groups of animals were formed: • the first (vegetable oil)—20 control female rats were housed together with 10 control male rats; the second (β-cyclodextrin)—20 control female rats were housed together with 10 control male rats; the third (the prototype agent, 0.35 mg/kg)—20 study female rats housed together with 10 control male rats; • the fourth (the prototype, 0.70 mg/kg)—20 control female rats were housed together with 10 study male rats; • the fifth (the agent of present invention in the clathrate complex form 0.35 mg/kg)—20 study female rats were housed together with 10 control male rats; • the sixth (the agent of present invention in the clathrate complex form 0.70 mg/kg)—20 control female rats were housed together with 10 study male rats.
During two estrous cycles, vaginal smear preparations were analyzed. Proestrus, estrus and metaestrum phases were detected. Presence of spermatozoa in vaginal smear preparations was registered as the first day of gestation. After 10 days, two subgroups of gestation female rats were formed from female rats in each of […] groups. Female rats of the first subgroups were sacrificed on 20th day of gestation. Amount of fetuses, resorption, implantation sites in the uterine cavity and yellow bodies of ovary were counted. Based on the obtained data, pre-implantation and post-implantation fetal death indexes were calculated according to the following equation: […]
where N1—amount of yellow bodies, N2—amount of implantation sites
where N1—amount of implantation sites N2—amount of viable fetuses.
Further, fertility index (ratio between the amount of female rats housed together with male rats to the amount of female rats having spermatozoa in vaginal smear preparations) and gestation index (ratio between the amount of female rats having spermatozoa in vaginal smear preparations to the amount of animals with full-term pregnancy):
where N1—amount of embryonate female rats N2—amount female rats housed together with male rats
where N1—amount of gestation female rats N2—amount of embryonate female rats Pathological changes (subcutaneous hematomas and edemas, developmental defects of skeletal system and eye globes) were registered.
The second groups of gestation female rats were allowed to parturiate under monitoring. Animals were weighed weekly and weight gain was registered. Parturition date, amount of babies in the brood and weight of babies were recorded. On 21st day after parturition, the survival rate and total and median weight of babies were measured.

Wistar rats [2] = assay: Reproductive function study, agents administered to male rats and female rats separately (Example 2); type: in vivo, rat; conditions: for Amount of embryonate female rats: of 20 added females; for Amount of babies delivered by 1 female / Amount of dead fetuses / Amount of gestation female rats / Amount of implantation sites / Amount of resorptions / Amount of viable fetuses / Amount of yellow bodies / Carniocaudal size of fetus / Fertility index / Fetus body weight / Gestation index / Post-implantation loss / Postnatal loss after 3 weeks / Pre-implantation loss / Weight of newborn baby rats / Dynamics of infant body weight, 1st week / Dynamics of infant body weight, 2nd week / Dynamics of infant body weight, 3rd week / Dynamics of infant body weight, 4th week: 0.35 mg/kg
Experimental: 180 male and female Wistar rats were studied in the experiments (initial body weight—180-200 g). The prototype agent and the agent of present invention in the clathrate complex form were administered intragastrically in amount of 0.35 mg/kg. Female group of 120 animals was broken into two subgroups: control group (80 animals) and study group (40 animals). The prototype agent and the agent of present invention in the clathrate complex form were intragastrically administered to female rats of study group once a day during 2 weeks (3-4 estrous cycles). Male group of 60 animals was broken into two subgroups: control group (40 animals) and study group (20 animals). The prototype agent and the agent of present invention in the clathrate complex form were intragastrically administered to male rats of study group daily during 10 weeks (2-3 cycles of spermatozoa maturation). Corresponding amounts of placebo comprised of vegetable oil or β-cyclodextrin were administered to animals of the control group with the same intervals. The placebo was chosen based on the fact that the prototype agent is an oil-soluble compound and the agent of present invention in the clathrate complex form is a water soluble compound. The drugs were administered once daily (at 10 a.m.).
After administering the medication 6 groups of animals were formed: • the first (vegetable oil)—20 control female rats were housed together with 10 control male rats; • the second (β-cyclodextrin)—20 control female rats were housed together with 10 control male rats; • the third (the prototype, 0.35 mg/kg)—20 study female rats were housed together with 10 control male rats; • the fourth (the prototype, 0.35 mg/kg)—20 control female rats were housed together with 10 study male rats; • the fifth (the agent of present invention in the clathrate complex form 0.35 mg/kg)—20 study female rats were housed together with 10 control male rats; • the sixth (the agent of present invention in the clathrate complex form 0.35 mg/kg)—20 control female rats were housed together with 10 study male rats.
A pre- and post-implantation fetal death indexes, fertility index and gestation index were calculated according to equations cited in Example 1.

[3] = Solubility character of the agents; type: physicochemical
[4] = 0.35 mg/kg intragastrically daily during 10 weeks
[5] = 0.70 mg/kg intragastrically daily during 10 weeks
[6] = administered to female rats, 2 weeks
[7] = administered to male rats, 10 weeks

c1ccc(C2C3=C(CCCC3)[Se]C3=C2CCCC3)cc1 [Prototype agent, 9-phenyl-sym-octahydroselenoxanthene]
Amount of gestation female rats (Wistar rats [1]; [4]): 13 | Fertility index (Wistar rats [1]; [4]): 80% | Gestation index (Wistar rats [1]; [4]): 81% | Amount of embryonate female rats (Wistar rats [1]; [4]): 16 | Amount of gestation female rats (Wistar rats [1]; [5]): 14 | Fertility index (Wistar rats [1]; [5]): 85% | Gestation index (Wistar rats [1]; [5]): 82% | Amount of embryonate female rats (Wistar rats [1]; [5]): 17 | Amount of babies delivered by 1 female (Wistar rats [1]; male rats 0.35 mg/kg): 9.2 ± 1.1 | Post-implantation loss (Wistar rats [1]; male rats 0.35 mg/kg): 5.3% | Postnatal loss after 3 weeks (Wistar rats [1]; male rats 0.35 mg/kg): 2.8% | Pre-implantation loss (Wistar rats [1]; male rats 0.35 mg/kg): 5.1% | Weight of newborn baby rats (Wistar rats [1]; male rats 0.35 mg/kg): 5.7 ± 0.9 g | Dynamics of babies' body weight, 1st week (Wistar rats [1]; male rats 0.35 mg/kg): 19.2 ± 1.1 g | Dynamics of babies' body weight, 2nd week (Wistar rats [1]; male rats 0.35 mg/kg): 25.2 ± 1.6 g | Dynamics of babies' body weight, 3rd week (Wistar rats [1]; male rats 0.35 mg/kg): 45.7 ± 1.2 g | Dynamics of babies' body weight, 4th week (Wistar rats [1]; male rats 0.35 mg/kg): 60.4 ± 1.9 g | Craniocaudal size of fetus (Wistar rats [1]; male rats 0.35 mg/kg): 33 ± 2 mm | Fetus weight (Wistar rats [1]; male rats 0.35 mg/kg): 3.3 ± 0.2 g | Amount of dead fetuses (Wistar rats [1]; male rats 0.35 mg/kg): 0 | Amount of implantation sites (Wistar rats [1]; male rats 0.35 mg/kg): 13.1 ± 1.0 | Amount of resorptions (Wistar rats [1]; male rats 0.35 mg/kg): 0.6 ± 0.2 | Amount of viable fetuses (Wistar rats [1]; male rats 0.35 mg/kg): 12.4 ± 0.8 | Amount of yellow bodies (Wistar rats [1]; male rats 0.35 mg/kg): 13.8 ± 1.2 | Amount of babies delivered by 1 female (Wistar rats [1]; male rats 0.70 mg/kg): 9.0 ± 1.2 | Post-implantation loss (Wistar rats [1]; male rats 0.70 mg/kg): 4.8% | Postnatal loss after 3 weeks (Wistar rats [1]; male rats 0.70 mg/kg): 2.8% | Pre-implantation loss (Wistar rats [1]; male rats 0.70 mg/kg): 5.3% | Weight of newborn baby rats (Wistar rats [1]; male rats 0.70 mg/kg): 5.8 ± 1.0 g | Dynamics of babies' body weight, 1st week (Wistar rats [1]; male rats 0.70 mg/kg): 19.1 ± 0.8 g | Dynamics of babies' body weight, 2nd week (Wistar rats [1]; male rats 0.70 mg/kg): 25.3 ± 1.2 g | Dynamics of babies' body weight, 3rd week (Wistar rats [1]; male rats 0.70 mg/kg): 44.7 ± 1.5 g | Dynamics of babies' body weight, 4th week (Wistar rats [1]; male rats 0.70 mg/kg): 59.8 ± 2.4 g | Craniocaudal size of fetus (Wistar rats [1]; male rats 0.70 mg/kg): 33 ± 1 mm | Fetus weight (Wistar rats [1]; male rats 0.70 mg/kg): 3.3 ± 0.1 g | Amount of dead fetuses (Wistar rats [1]; male rats 0.70 mg/kg): 0 | Amount of implantation sites (Wistar rats [1]; male rats 0.70 mg/kg): 12.5 ± 1.0 | Amount of resorptions (Wistar rats [1]; male rats 0.70 mg/kg): 0.5 ± 0.2 | Amount of viable fetuses (Wistar rats [1]; male rats 0.70 mg/kg): 11.9 ± 0.7 | Amount of yellow bodies (Wistar rats [1]; male rats 0.70 mg/kg): 13.2 ± 0.9 | Amount of embryonate female rats (Wistar rats [2]; administered to female rats, 0.35 mg/kg intragastrically once a day during 2 weeks): 16 | Amount of babies delivered by 1 female (Wistar rats [2]; [6]): 8.6 ± 0.9 | Amount of dead fetuses (Wistar rats [2]; [6]): 0 | Amount of gestation female rats (Wistar rats [2]; [6]): 14 | Amount of implantation sites (Wistar rats [2]; [6]): 9.9 ± 0.6 | Amount of resorptions (Wistar rats [2]; [6]): 0.4 ± 0.2 | Amount of viable fetuses (Wistar rats [2]; [6]): 9.2 ± 1.1 | Amount of yellow bodies (Wistar rats [2]; [6]): 10.7 ± 0.7 | Carniocaudal size of fetus (Wistar rats [2]; [6]): 35 ± 2 mm | Fertility index (Wistar rats [2]; [6]): 80% | Fetus body weight (Wistar rats [2]; [6]): 3.4 ± 0.2 g | Gestation index (Wistar rats [2]; [6]): 88% | Post-implantation loss (Wistar rats [2]; [6]): 7.1% | Postnatal loss after 3 weeks (Wistar rats [2]; [6]): 2.5% | Pre-implantation loss (Wistar rats [2]; [6]): 7.5% | Weight of newborn baby rats (Wistar rats [2]; [6]): 6.2 ± 0.9 g | Dynamics of infant body weight, 1st week (Wistar rats [2]; [6]): 18.8 ± 1.2 g | Dynamics of infant body weight, 2nd week (Wistar rats [2]; [6]): 26.3 ± 1.5 g | Dynamics of infant body weight, 3rd week (Wistar rats [2]; [6]): 47.4 ± 2.0 g | Dynamics of infant body weight, 4th week (Wistar rats [2]; [6]): 61.5 ± 2.8 g | Amount of embryonate female rats (Wistar rats [2]; administered to male rats, 0.35 mg/kg intragastrically daily during 10 weeks): 17 | Amount of babies delivered by 1 female (Wistar rats [2]; [7]): 8.7 ± 0.8 | Amount of dead fetuses (Wistar rats [2]; [7]): 0 | Amount of gestation female rats (Wistar rats [2]; [7]): 15 | Amount of implantation sites (Wistar rats [2]; [7]): 10.1 ± 1.1 | Amount of resorptions (Wistar rats [2]; [7]): 0.4 ± 0.2 | Amount of viable fetuses (Wistar rats [2]; [7]): 9.4 ± 1.0 | Amount of yellow bodies (Wistar rats [2]; [7]): 10.8 ± 0.8 | Carniocaudal size of fetus (Wistar rats [2]; [7]): 35 ± 1 mm | Fertility index (Wistar rats [2]; [7]): 85% | Fetus body weight (Wistar rats [2]; [7]): 3.5 ± 0.2 g | Gestation index (Wistar rats [2]; [7]): 88% | Post-implantation loss (Wistar rats [2]; [7]): 6.9% | Postnatal loss after 3 weeks (Wistar rats [2]; [7]): 2.6% | Pre-implantation loss (Wistar rats [2]; [7]): 6.5% | Weight of newborn baby rats (Wistar rats [2]; [7]): 6.4 ± 1.2 g | Dynamics of infant body weight, 1st week (Wistar rats [2]; [7]): 20.1 ± 0.9 g | Dynamics of infant body weight, 2nd week (Wistar rats [2]; [7]): 27.2 ± 1.5 g | Dynamics of infant body weight, 3rd week (Wistar rats [2]; [7]): 45.9 ± 1.9 g | Dynamics of infant body weight, 4th week (Wistar rats [2]; [7]): 61.9 ± 2.6 g | Solubility (oil-soluble / water soluble) [3]: oil-soluble
